Assays:
Experiment in all cases: Post-emergence field trial in onion, visual weed control
Assay type in all cases: in vivo
[1] = tested on: annual bluegrass (Poa annua L.), POAAN; details: 15 days after application
Procedure: (§1) Multiple post-emergence field trials were conducted under field conditions in Colombia, Peru and Ecuador. Trial sites were located in commercially grown fields of onion (Allium spp) using standard herbicide small plot research methodology. Post-emergence trial plot size varied from 0.4 to 2 meter (m)×5 to 25 m (width×length) with 4 replicates per treatment. The onion crop was grown using normal cultural practices for fertilization, seeding, watering and maintenance to ensure good growth of the crop and the weeds.
(§2) All treatments in the post-emergence field trials were applied using a backpack compressed carbon dioxide (CO2) sprayer with flat fan nozzles calibrated to apply 400 liters per hectare (L/ha) spray volume at approximately 35 pounds per square inch (psi) nozzle pressure. Commercially available products of oxyfluorfen (GOAL® 480SC 480 grams active ingredient per liter (g ai/L) and haloxyfop-methyl (VERDICT R® 42 g ai/L) were mixed in water at appropriate formulated product rates to achieve the desired rates based on a unit area of application (hectare). Treatments were rated at 7 to 31 days after application (DAA) as compared to the untreated control plants. Visual weed control was scored on a scale of 0 to 100 percent where 0 corresponds to no injury and 100 corresponds to complete kill.
(§3) All treatment results, both for the single product and mixtures, are an average of 4 replicates. The trial sites had naturally occurring populations of weeds. The weed spectrum included, but was not limited to, AMBEL, BIDPI, BRSRA, GASPA, ELEIN, LOLTE, POANN, and SETVE.
(§4) Colby's equation was used to determine the herbicidal effects expected from the mixtures (Colby, S. R. Calculation of the synergistic and antagonistic response of herbicide combinations. Weeds 1967, 15, 20-22.).
(§5) The following equation was used to calculate the expected activity of mixtures containing two active ingredients, A and B:
(§6) A=observed efficacy of active ingredient A at the same concentration as used in the mixture.
(§7) B=observed efficacy of active ingredient B at the same concentration as used in the mixture.

[2] = tested on: birdsrape mustard (Brassica rapa), BRSRA
Procedure: as §1, §2, §3, §4, §5, §6, §7

[3] = tested on: bristly foxtail (Setaria verticillata), SETVE; details: 7 days after application
Procedure: as §1, §2, §3, §4, §5, §6, §7

[4] = tested on: common ragweed (Ambrosia artemisiifolia L.), AMBEL; details: 15 days after application
Procedure: as §1, §2, §3, §4, §5, §6, §7

[5] = tested on: goosegrass (Eleusine indica), ELEIN; details: 7 days after application
Procedure: as §1, §2, §3, §4, §5, §6, §7

[6] = tested on: hairy beggarticks (Bidens pilosa), BIDPI
Procedure: as §1, §2, §3, §4, §5, §6, §7

[7] = tested on: poison ryegrass (Lolium temulentum), LOLTE; details: 15 days after application
Procedure: as §1, §2, §3, §4, §5, §6, §7

[8] = tested on: smallflower galinsoga (Galinsoga parviflora), GASPA; details: 15 days after application
Procedure: as §1, §2, §3, §4, §5, §6, §7

[9] = oxyfluorfen 0, haloxyfop-methyl 42 g ai/ha, foliar
[10] = 16 days after application, oxyfluorfen 0, haloxyfop-methyl 42 g ai/ha, foliar
[11] = 31 days after application, oxyfluorfen 0, haloxyfop-methyl 42 g ai/ha, foliar
[12] = oxyfluorfen 120 g ai/ha, haloxyfop-methyl 0, foliar
[13] = oxyfluorfen 240 g ai/ha, haloxyfop-methyl 0, foliar
[14] = oxyfluorfen 360 g ai/ha, haloxyfop-methyl 0, foliar
[15] = 16 days after application, oxyfluorfen 120 g ai/ha, haloxyfop-methyl 0, foliar
[16] = 16 days after application, oxyfluorfen 240 g ai/ha, haloxyfop-methyl 0, foliar
[17] = 16 days after application, oxyfluorfen 360 g ai/ha, haloxyfop-methyl 0, foliar
[18] = 31 days after application, oxyfluorfen 120 g ai/ha, haloxyfop-methyl 0, foliar
[19] = 31 days after application, oxyfluorfen 240 g ai/ha, haloxyfop-methyl 0, foliar
[20] = 31 days after application, oxyfluorfen 360 g ai/ha, haloxyfop-methyl 0, foliar

## COC(=O)C(C)Oc1ccc(Oc2ncc(C(F)(F)F)cc2Cl)cc1 (stereo not drawn) [Haloxyfop-methyl]
[1]; [9]
  Visual Control (%) Obs: 5%
[2]; [10]
  Visual Control (%) Obs: 0%
[2]; [11]
  Visual Control (%) Obs: 0%
[3]; [9]
  Visual Control (%) Obs: 77%
[4]; [9]
  Visual Control (%) Obs: 6%
[5]; [9]
  Visual Control (%) Obs: 6%
[6]; [10]
  Visual Control (%) Obs: 0%
[6]; [11]
  Visual Control (%) Obs: 0%
[7]; [9]
  Visual Control (%) Obs: 4%
[8]; [9]
  Visual Control (%) Obs: 6%

## CCOc1cc(Oc2ccc(C(F)(F)F)cc2Cl)ccc1[N+](=O)[O-] [Oxyfluorfen, 2-chloro-1-(3-ethoxy-4-nitrophenoxy)-4-(trifluoromethyl)benzene]
[1]; [12]
  Visual Control (%) Obs: 45%
[1]; [13]
  Visual Control (%) Obs: 45%
[1]; [14]
  Visual Control (%) Obs: 47%
[2]; [15]
  Visual Control (%) Obs: 70%
[2]; [16]
  Visual Control (%) Obs: 74%
[2]; [17]
  Visual Control (%) Obs: 85%
[2]; [18]
  Visual Control (%) Obs: 74%
[2]; [19]
  Visual Control (%) Obs: 79%
[2]; [20]
  Visual Control (%) Obs: 86%
[3]; [14]
  Visual Control (%) Obs: 70%
[4]; [12]
  Visual Control (%) Obs: 21%
[4]; [13]
  Visual Control (%) Obs: 22%
[4]; [14]
  Visual Control (%) Obs: 22%
[5]; [14]
  Visual Control (%) Obs: 47%
[6]; [15]
  Visual Control (%) Obs: 49%
[6]; [16]
  Visual Control (%) Obs: 56%
[6]; [17]
  Visual Control (%) Obs: 69%
[6]; [18]
  Visual Control (%) Obs: 54%
[6]; [19]
  Visual Control (%) Obs: 61%
[6]; [20]
  Visual Control (%) Obs: 69%
[7]; [12]
  Visual Control (%) Obs: 21%
[7]; [13]
  Visual Control (%) Obs: 22%
[7]; [14]
  Visual Control (%) Obs: 22%
[8]; [12]
  Visual Control (%) Obs: 49%
[8]; [13]
  Visual Control (%) Obs: 47%
[8]; [14]
  Visual Control (%) Obs: 45%
